Target: Pyruvate dehydrogenase kinase 1 (PDK1) (Homo sapiens, UniProt Q15118)
Assay: ELISA-based in-well kinase assay: active PDK1 (Abcam) phosphorylating captured PDHA1 at Ser232
Type: biochemical

Pyruvate dehydrogenase kinase 1 (PDK1), sequence (Q15118 29-436): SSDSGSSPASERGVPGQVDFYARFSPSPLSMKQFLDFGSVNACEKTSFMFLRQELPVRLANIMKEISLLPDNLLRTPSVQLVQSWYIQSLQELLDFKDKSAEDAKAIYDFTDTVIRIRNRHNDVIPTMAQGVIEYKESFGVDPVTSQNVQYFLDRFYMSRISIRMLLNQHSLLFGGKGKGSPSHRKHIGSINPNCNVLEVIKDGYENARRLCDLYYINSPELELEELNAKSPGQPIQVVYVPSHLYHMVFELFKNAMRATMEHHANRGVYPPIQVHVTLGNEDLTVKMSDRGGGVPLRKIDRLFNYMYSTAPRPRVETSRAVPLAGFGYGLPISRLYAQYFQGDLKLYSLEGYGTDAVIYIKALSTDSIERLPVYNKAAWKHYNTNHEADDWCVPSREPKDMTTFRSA

In the case of O=c1oc2ccccc2c(O)c1Cc1c(O)c2ccccc2oc1=O [DIC, dicumarol], the IC50 is reported as 19.42 ± 0.032 µM.
